Patent US20240415804A1, “METHOD OF TREATING PANCREATIC CANCER” (University of South Florida, priority 2022, published 2024)

Legend:
[1] = system: miR-155; test: miR-155 gene expression in BM and tumor of OPC mice; assay type: in vivo, mouse; conditions: API 25 mg/kg IP 3 times per week for 2-3 weeks, vs OPC mice
Experimental: The inventors reported recently that API reduced tumor growth in an orthotopic (O) mouse model of PC (OPC)^12, which is a more clinically relevant model^69. To investigate if API targets miR-155 and regulates SHIP-1 expression in the BM and tumor of an OPC mouse model, OPC mice were treated with API at a dose of 25 mg/kg (IP) 3 times per week for 2-3 weeks. […] To generate orthotopic pancreatic models (OPC), anesthetized (1.5-3% isoflurane) mice were injected in the neck of the pancreas, via laparotomy^59, with sterile PBS (CTRL) or 1.25×10^4 Panc02 cells (OPC), in sterile 1×PBS. Once pancreatic tumors were confirmed through ultrasound imaging (Vevo 2100), a cohort of OPC mice received API (25 mg/kg, 100 μL volume) while CTRL and OPC mice received sterile PBS (vehicle), all via IP, three times per week until the end of the study^12. […] The PCR cycling parameters were 95° C. for 10 min followed by 40 cycles of a denaturing step at 95° C. for 15 s and an annealing/extension step at 60° C. for 1 min. All reactions were performed in triplicate. Relative expression of miR-155 was calculated using the comparative […] method normalized to a mouse endogenous control gene snoRNA202 and human endogenous control gene U6 (Assay IDs: 001232 and 001093).

[2] = system: SHIP-1; test: SHIP-1 gene and protein expression in tumors of KC-HPC mice; assay type: in vivo, mouse; conditions: API 25 mg/kg IP three times per week for 17 days, vs vehicle
Experimental: To build on these findings, the inventors then used a novel pancreatic cancer cell line, UN-KC-6141, that resembles human PC due to its expression of a mutated Kras and generated mice harboring these tumor cells, called KC-HPC mice. Such mice were treated with API at a dose of 25 mg/kg (IP) three times per week for 17 days. The inventors examined if API also targets miR-155 and regulates SHIP-1 in the tumors from KC-HPC mouse model.
All female C57BL/6 mice (6-8 weeks of age) described in this study were purchased from Envigo (Indianapolis, IN, USA) and were acclimatize for one week in a pathogen-free animal facility (University of South Florida (USF) vivarium) before injections with PC cells. To generate heterotopic pancreatic cancer (HPC) models, mice were subcutaneously injected with 1.5×10^5 murine Panc02 (HPC mice) or 5×10^6 murine UN-KC-6141 cells (KC-HPC mice), in sterile 1× phosphate buffer saline (PBS), in the lower ventral abdomen, while control (CTRL) mice received sterile 1×PBS. […]
Isolation of total RNA from digested pancreatic tumors and BM cells was performed using a RNeasy Mini Kit (Qiagen), according to the manufacturer's instructions. RT-PCR of quantified and normalized total RNA was performed using a High-Capacity cDNA RT Kit with an RNase Inhibitor (Applied Biosystems), according to the manufacturer's instructions. […]

Compound: O=c1cc(-c2ccc(O)cc2)oc2cc(O)cc(O)c12 [API, 40,5,7-Trihydroxyflavone, 5,7-Dihydroxy-2-(4-hydroxyphenyl)-4-benzopyrone]
- miR-155 gene expression in BM [1]: inhibit the overexpression
- miR-155 gene expression in pancreatic tumor [1]: significant decrease
- SHIP-1 gene expression in tumor [2]: significantly increased
- SHIP-1 protein expression in tumor [2]: significantly increased
